Data set [1] relates to P. aeruginosa ATCC27853. It counts as cell-based, Pseudomonas aeruginosa. The text has this:
(§1) Biofilms may form on a wide variety of surfaces, including living or dead surfaces, and biofilm-associated bacteria are more tolerant to antibiotics than planktonic bacterial cells, making them antibiotic-resistant. To assess the efficacy of PEP27-2 against biofilms, we observed the anti-biofilm activity of PEP27-2 in S. aureus (ATCC 25923 and CCARM 3090), E. coli (ATCC 25922 and CCARM 1238), and P. aeruginosa (ATCC 27853 and 4891).
(§2) Specifically, among the strains listed in Table 3 above, Staphylococcus aureus, E. coli and Pseudomonas erujinosa, respectively, were cultured in each medium to a mid-log phase, diluted to a cell concentration of 5×10^4 cells/100 μl, and then, inoculated into a micro-plate (SPL). Then, PEP27-2 peptide was diluted 1/10 times with 10 mM PBS solution (pH 7.2) and 10 μl of the solution was added to each well, followed by incubation at 37° C. for 24 hours. After completely removing the supernatant, the solution was fixed with 100% methanol for 15 minutes, stained with a crystal violet dye solution for 1 hour, washed 3 times, and then dissolved in 95% ethanol, followed by measuring the absorbance at a wavelength of 595 nm using a micro titration plate reader, thereby determining a biofilm minimal inhibitory concentration value for each strain.

The test system of data set [2] is P. aeruginosa 4891. The format is cell-based, Pseudomonas aeruginosa.
Source text: as §1, §2

Data set [3] relates to S. aureus CCARM3518. The data set can be described thus: microbe, parasite or virus in culture. The conditions noted are these: S. aureus CCARM3518, antibiotics-tolerant; 37° C., 18 hours. Put shortly: (§3)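 Peptide growth inhibition measured by twofold dilution against mid-log bacteria (2×10^4 cells/100 μl), 37° C, 18 hours; endpoint was absence of cell division. Meropenem, ceftazidime, ceftriaxone and vancomycin were run in parallel.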

The test system of data set [4] is P. aeruginosa ATCC15692. The data set can be described thus: microbe, parasite or virus in culture. Put shortly: as §3
Data set [5] relates to red blood cells of a rat (Balb/c). The note with it: 37° C., 1 hour.
The subject of data set [6] is E. coli CCARM1238. It counts as cell-based, Escherichia coli. The note with it: E. coli CCARM1238, antibiotics-tolerant; 37° C., 18 hours. On the procedure:
(§4) In order to evaluate the antimicrobial activity of the peptides prepared by the method of above 1, a minimal inhibitory concentration (MIC) value as the minimum concentration of a peptide, in which cells are not divided, was measured.
(§5) Specifically, the strains shown in Table 3 below were purchased, cultured in a medium having a constitutional composition suitable for each strain to a mid-log phase, and then diluted to a concentration of 2×10^4 cells/100 μl to prepare the product on a micro-titration plate (Nunc, USA). Then, PEP27, PEP27-1, PEP27-2 or PEP27-5 peptide synthesized in the above 1 was added to each well by serial dilution ½ times, followed by incubation at 37° C. for 18 hours.

For data set [7], the system named is E. coli ATCC27325. The format is cell-based, Escherichia coli. On the procedure: as §4, §5
Data set [8] has as its system E. coli CCARM1229. The format is cell-based, Escherichia coli. The conditions noted are these: 37° C., 24 hours.
In data set [9] the test system is HaCaT and MCF-7 cells. The data set can be described thus: MTT cytotoxicity. It counts as cell-based, human. The note with it: for toxicity relative to the antimicrobial concentration range: mouse erythrocytes and human cells.
Data set [10] has as its system P. aeruginosa 4007. The format is cell-based, Pseudomonas aeruginosa.
For data set [11], the system named is P. aeruginosa ATCC15692. The format is cell-based, Pseudomonas aeruginosa.
Data set [12] deals with B. subtilis KCTC1998. It counts as cell-based, Bacillus subtilis. On the procedure: as §4, §5
Where [13] appears, read: Peptide concentration 100 μM, 100% = 1% Triton X-100.

≈ marks a conversion by molar mass, not a printed value. Where “and” joins values, the source holds several entries; their conditions need not be identical. Identical values can stand only once. Like-named read-outs stand apart in the source and are kept apart here. Where a SMILES comes first, the peptide text is derived from it.

For `CC[C@H](C)[C@H](NC(=O)CN)C(=O)NCC(=O)N[C@@H](C)C(=O)N[C@H](C(=O)N[C@@H](CC(C)C)C(=O)N[C@@H](CCCCN)C(=O)N[C@H](C(=O)N[C@@H](CC(C)C)C(=O)N[C@H](C(=O)N[C@H](C(=O)NCC(=O)N[C@@H](CC(C)C)C(=O)N1CCC[C@H]1C(=O)N[C@@H](C)C(=O)N[C@@H](CC(C)C)C(=O)N[C@H](C(=O)N[C@@H](CO)C(=O)N[C@@H](Cc1c[nH]c2ccccc12)C(=O)N[C@H](C(=O)N[C@@H](CCCCN)C(=O)N[C@@H](CCCNC(=N)N)C(=O)N[C@@H](CCCCN)C(=O)N[C@@H](CCCNC(=N)N)C(=O)N[C@@H](CCC(N)=O)C(=O)N[C@@H](CCC(N)=O)C(N)=O)[C@@H](C)CC)[C@@H](C)CC)[C@@H](C)O)[C@@H](C)O)C(C)C)C(C)C` [Melittin, reference compound], the “Biofilm minimal inhibitory concentration” value in [1] (P. aeruginosa ATCC27853, 37° C., 24 hours) turned out to be 4 µM; in [2] (P. aeruginosa 4891, 37° C., 24 hours), 8 µM; in [8], 4 µM; in data set [10] (P. aeruginosa 4007, 37° C., 24 hours), 4 µM; in [11] (P. aeruginosa ATCC15692, 37° C., 24 hours) it was 4 µM. Besides, the Minimal inhibitory concentration was found to be 2 µM (≈ 5.69 µg/mL) in data set [3]; 2 µM (≈ 5.69 µg/mL) in data set [4] (P. aeruginosa ATCC15692, Gram-negative, 37° C., 18 hours); 4 µM (≈ 11.4 µg/mL) in [6]; 2 µM (≈ 5.69 µg/mL) in data set [7] (E. coli ATCC27325, Gram-negative, 37° C., 18 hours); 4 µM (≈ 11.4 µg/mL) in data set [12] (B. subtilis KCTC1998, Gram-positive, 37° C., 18 hours). Moreover, the Erythrocyte destruction ability in [5] (Peptide concentration 3.13 μM) was found to be 27.33%; in data set [5] (Peptide concentration 6.25 μM) it was 49.41%; in data set [5] (Peptide concentration 12.5 μM), 69.75%; in data set [5] (Peptide concentration 25 μM) it was 83.99%; in [5] (Peptide concentration 50 μM) it was 97.76%; in data set [5] (setting [13]), 99.17%. The “toxicity relative to the antimicrobial concentration range” value in data set [9] is “begins to show toxicity within the range of antibacterial activity”.

With `CSCC[C@H](N)C(=O)N[C@@H](Cc1c[nH]c2ccccc12)C(=O)N[C@@H](CCCCN)C(=O)N[C@@H](Cc1c[nH]c2ccccc12)C(=O)N[C@@H](Cc1ccccc1)C(=O)N[C@@H](Cc1c[nH]cn1)C(=O)N[C@@H](CC(N)=O)C(=O)N[C@H](C(=O)N[C@@H](CC(C)C)C(=O)N[C@@H](CO)C(=O)N[C@@H](Cc1c[nH]c2ccccc12)C(=O)NCC(=O)N[C@@H](Cc1c[nH]c2ccccc12)C(=O)N[C@@H](CC(C)C)C(=O)N[C@@H](CC(C)C)C(=O)N[C@@H](C)C(=O)N[C@@H](CC(=O)O)C(=O)N[C@@H](CCCCN)C(=O)N[C@@H](CCCNC(=N)N)C(=O)N1CCC[C@H]1C(=O)N[C@@H](C)C(=O)N[C@@H](CCCNC(=N)N)C(=O)N[C@@H](CC(=O)O)C(=O)N[C@@H](Cc1ccc(O)cc1)C(=O)N[C@@H](CC(N)=O)C(=O)N[C@@H](CCCNC(=N)N)C(=O)N[C@@H](CCCCN)C(N)=O)C(C)C` [PEP27-2] (H-MWKWFHNVLSWGWLLADKRPARDYNRK-NH2), the “maximum percent biofilm inhibition” value in data set [1] (ATCC27853) worked out at 81.2%. Moreover, the “Biofilm minimal inhibitory concentration” value in [1] (ATCC27853, 24 h) amounted to 8 µM; in data set [2] (4891, 24 h) it was 8 µM; in [8], 8 µM; in data set [10] (4007, 24 h), 8 µM; in data set [11] (ATCC15692, 24 h), 8 µM. For the same molecule, the Minimal inhibitory concentration in data set [3] came to 4 µM (≈ 13.9 µg/mL); in data set [4] (ATCC15692, 18 h), 4 µM (≈ 13.9 µg/mL); in data set [6] it was 4 µM (≈ 13.9 µg/mL); in [7] (ATCC27325, 18 h) it was 4 µM (≈ 13.9 µg/mL); in data set [12] (KCTC1998, 18 h), 4 µM (≈ 13.9 µg/mL). Moreover, the Erythrocyte destruction ability in data set [5] (Peptide concentration 3.13 μM) was 0%; in data set [5] (Peptide concentration 6.25 μM) it was 2.30%; in [5] (Peptide concentration 12.5 μM), 14.96%; in [5] (Peptide concentration 25 μM), 40.51%; in [5] (Peptide concentration 50 μM) it was 62.47%; in [5] (setting [13]), 75.8% and 75.84%. Also, the cell viability in data set [9] (100 μM, 24 h, MTT, HaCaT and MCF-7 cells) was 19%-23%. Moreover, the “toxicity relative to the antimicrobial concentration range” value in data set [9] is reported as “not toxic within the range of antimicrobial activity or 4×MIC concentration”.
